Laboratory results taken from patent US20090149395A1, “NOVEL MACROCYCLIC POLYENE LACTAMS” (priority 2007, published 2009).
Converted amounts (≈) assume the structure as drawn. Read-outs that look alike come from different tables or passages of the source.

Legend:
E. faecium E4So1 = experiment: MIC broth dilution; assay type: cell-based; settings: Enterococcus faecium
B. subtilis 1A1 = experiment: MIC broth dilution; assay type: cell-based; settings: Bacillus subtilis, 1A1, B. subtilis 1A1
E. faecium (VRE JM89) = experiment: MIC broth dilution; assay type: cell-based; settings: Enterococcus faecium
E. faecalis (VRE BM4147) = experiment: MIC broth dilution; assay type: cell-based; settings: Enterococcus faecalis
S. pneumoniae BAA225 = experiment: MIC broth dilution; assay type: cell-based; settings: Streptococcus pneumoniae
MRSA and VRE = experiment: Effect of serum on NOVO4 MIC; assay type: cell-based; settings: MIC without serum compared to media with 10% calf bovine serum
Procedure: These studies follow the procedure for determining the MIC described above in Example 5. Briefly, two-fold serial dilution of the NOVO4 compound are added to the test cells of interest, MRSA and VRE, and the lowest concentration of compound that inhibits growth after a period of incubation is considered to be the MIC. To determine the effect of serum on the activity of NOVO4, MIC in the absence of serum is compared to MIC in media supplemented with 10% calf bovine serum (ATCC 30-2030).

MSSA (ATCC 13709) = experiment: MIC broth dilution; assay type: cell-based, Staphylococcus aureus
MRSA NRS108 = experiment: MIC broth dilution; assay type: cell-based, Methicillin-resistant Staphylococcus aureus; settings: Staphylococcus aureus
[1] = test system: NIH3T3 mouse embryonic fibroblasts; experiment: Mammalian cytotoxicity assay (CellTiter 96 AQueous One); assay type: cell-based; settings: NIH3T3 cells, 24 hr, highest tested 16 μg/ml
Procedure: Mammalian cytotoxicity assays were performed using NIH3T3 mouse embryonic fibroblasts (ATCC CRL-1658), and cytotoxicity was measured using the CellTiter 96® AQueous One Solution Cell Proliferation Assay (Promega, Madison, Wis., Cat: G3582), according to the manufacturer's recommendations.
100× working stocks of 2-fold serial dilution of NOVO4 in DMSO were created in a 96 well format. The highest concentration of the 100× concentration (working stock) was prepared by adding […] of the stock solution of NOVO4 (10 mg/ml in DMSO) for every 0.68 μl of DMSO to well A02. 0.5 μl of this 100× stock was added for every 0.5 μl of DMSO in well A03 to create a total of 7 two-fold serial dilution series, from 1600 μg/ml to 25 μg/ml (from highest in well A02 to A08,). A DMSO control was also included (wells in column A01, and A12). […]
The plate was visually inspected under a dissecting microscope, and the absorbance at 490 nm was read using a Spectramax Plus Spectrophotometer, with wells A12, and B12 reserved as blanks. The signal of compound alone (well A11) was verified not to contribute to the absorbance at this wavelength. Next, 20 μl of the CellTiter 96® AQueous One Solution Cell Proliferation Assay (Promega, Madison, Wis., Cat: G3582) was added to each well, and the plate was read after 3 hr of incubation. […]

bacterial cells = experiment: Solid agar growth inhibition zone assay; assay type: cell-based; settings: MHB agar, 5 μl spot, 16 hr to 24 hr incubation; strain not named
Procedure: This can be achieved in different assay format; bacteria growing on solid agar media or bacteria growing in broth such as for Example 5 and 6 (Minimal Inhibition Concentration).
For solid agar format, bacterial cells are first grown in a suitable media such as Mueller Hinton broth (MHB) until exponential phase (OD600<1.0). The cells are diluted back to OD600=0.02 in MHB, and evenly applied as a thin layer on the surface of a plate of solid growth media, such as MHB agar (about 0.1 ml onto a surface area of 100 cm^2). After the surface is dried, a 5 μl aliquot of a 2-fold serial dilution of NOVO4 (in 50% DMSO) is spotted onto the surface of the agar plate. After 16 hr to 24 hr of incubation, depending on the bacterial strain of interest, the diameter of zones of growth inhibition is measured.

B. anthracis sterne = experiment: microbe, parasite or virus in culture; assay type: cell-based; settings: Bacillus anthracis
E. faecium MG1953 = experiment: MIC broth dilution; assay type: cell-based; settings: Enterococcus faecium
MRSA NRS1 = experiment: MIC broth dilution; assay type: cell-based, Methicillin-resistant Staphylococcus aureus; settings: Staphylococcus aureus
human red blood cells = assay type: cell-based
Procedure: The effect of NOVO4 on the hemolysis of human red blood cells was also tested. A total of 10 ml of expired packed red blood cells from the blood bank was gently added to 80 ml of PBS (Phosphate buffered saline), and pelleted at 1000 g for 5 minutes at 4° C. The upper phase and buffy layer (white blood cells) were removed. The cells are repeatedly washed by gentle mixing with PBS, and centrifugation until the upper phase is clear. In the last wash, 40 ml of 1×PBS with 0.05% BSA was added to half of the red blood cells while 40 ml of 1×PBS without BSA was added to the other half. The upper phase of the last wash was removed to leave a total volume of about 10 ml. The concentration of the red blood cells was measured by using the spectrophometer at 600 nm. An aliquot of the cells are diluted to a final density OD600 of 24 in 1×PBS, and another to a final density OD600 of 24 in 1×PBS with 0.05% BSA.
The compound NOVO4 is two-fold serially diluted (similar to that described above for mammalian NIH3T3 cytotoxicity assay) as 100× concentration in DMSO, ranging from 0.4 μg/ml to 400 μg/ml. […] After thorough mixing, the A450 was read using a Spectramax Plus Spectrophotometer, using wells with only 1×PBS as blanks. […]

Compound: CC1\C=C/C=C\C=C/C=C\C=C/C(OC2OCC(O)C(O)C2N)C(C)(O)/C=C/C=C\C=C/C=C/C(=O)NC1 (stereo not shown) [NOVO4]
- MIC (E. faecium E4So1; MHB): 2 µg/mL (≈ 3.81 µM)
- MIC (E. faecium E4So1; MHB + 0.05% BSA): 1 µg/mL
- MIC (E. faecium E4So1; MHB + 10% FCS): 1 µg/mL
- MIC (B. subtilis 1A1; MHB): 0.06 to 1 µg/mL (≈ 0.114 to 1.91 µM)
- MIC (B. subtilis 1A1; MHB + 0.05% BSA): 0.125 µg/mL
- MIC (B. subtilis 1A1; MHB + 10% FCS): 0.06 to 0.5 µg/mL
- MIC (E. faecium (VRE JM89); MHB): 4 µg/mL (≈ 7.62 µM)
- MIC (E. faecium (VRE JM89); MHB + 0.05% BSA): 2 µg/mL
- MIC (E. faecium (VRE JM89); MHB + 10% FCS): 2 µg/mL
- MIC (E. faecalis (VRE BM4147); MHB): 2 to 4 µg/mL (≈ 3.81 to 7.62 µM)
- MIC (E. faecalis (VRE BM4147); MHB + 0.05% BSA): 1 to 2 µg/mL
- MIC (E. faecalis (VRE BM4147); MHB + 10% FCS): 2 µg/mL
- MIC (S. pneumoniae BAA225; MHB): 1 to 2 µg/mL (≈ 1.91 to 3.81 µM)
- MIC (S. pneumoniae BAA225; MHB + 0.05% BSA): 1 to 2 µg/mL
- MIC (S. pneumoniae BAA225; MHB + 10% FCS): 2 to 4 µg/mL
- effect of calf bovine serum on the MIC (MRSA and VRE): no significant effect
- solubility (physchem; aqueous with cosolvent or surfactant or cyclodextrin): 300 µg/mL (≈ 572 µM)
- solubility (physchem; organic solvent or mixture): > 5000 µg/mL
- MIC (MSSA (ATCC 13709); MHB + 0.05% BSA): 0.25 µg/mL
- MIC (MSSA (ATCC 13709); Staphylococcus aureus, MHB + 10% FCS): 0.25 to 0.5 µg/mL
- MIC (MSSA (ATCC 13709); Staphylococcus aureus, MHB, read-out: MIC): 0.25 µg/mL (≈ 0.477 µM)
- MIC (MRSA NRS108; MHB): 1 to 8 µg/mL (≈ 1.91 to 15.2 µM)
- MIC (MRSA NRS108; MHB + 0.05% BSA): 2 µg/mL
- MIC (MRSA NRS108; MHB + 10% FCS): 0.5 to 2 µg/mL
- LD50 [1]: > 16 µg/mL
- minimal concentration in which a 5 μL aliquot spotted onto a lawn of growing bacteria results in an observable zone of no growth (bacterial cells): 0.67 µg/mL
- MIC (B. anthracis sterne; MHB): 0.25 to 0.5 µg/mL (≈ 0.477 to 0.953 µM)
- MIC (B. anthracis sterne; MHB + 0.05% BSA): 0.125 to 0.5 µg/mL
- MIC (B. anthracis sterne; MHB + 10% FCS): 0.25 to 0.5 µg/mL
- MIC (E. faecium MG1953; MHB): 2 to 4 µg/mL (≈ 3.81 to 7.62 µM)
- MIC (E. faecium MG1953; MHB + 0.05% BSA): 1 to 2 µg/mL
- MIC (E. faecium MG1953; MHB + 10% FCS): 2 µg/mL
- MIC (MRSA NRS1; MHB): 2 to 4 µg/mL (≈ 3.81 to 7.62 µM)
- MIC (MRSA NRS1; MHB + 0.05% BSA): 0.5 µg/mL
- MIC (MRSA NRS1; MHB + 10% FCS): 1 µg/mL

Compound: Triton X100
- A450 (hemoglobin released) (human red blood cells): 0.41
- lysis of red blood cells (human red blood cells): complete lysis
